For experiment [1], the target named is T1, melibiose permease (MelB) (Salmonella typhimurium, UniProt P30878).
T1 construct: made in house; host or cells: E. coli DW2-R (ΔmelB, ΔlacZY), vector pK35ΔAHB/WT MelB/CH6
The experiment in a line: MelB solubilization and thermostability (SDS-PAGE, immunoblot). To be noted: 1.5 wt %; for MelB extraction from membranes at 0° C.: 10 min or 90 min. How it is done: DDM (1.5 wt %) or GDN (1.5 wt %) was used to extract MelB from S. typhimurium membranes at 0° C. for 10 min or 90 min and then aggregated material was removed via ultracentrifugation. The amount of MelB in solution was determined by SDS-PAGE with immunoblot detection (FIG. 10).
The effect of DDM and GDN on MelB thermostability was assessed by solubilizing the protein at the elevated temperatures for 90 min. […] Presumably MelB denatured and aggregated at the higher temperature in the presence of DDM. […] When MelB expressed in E. coli was used, similar results were obtained (FIG. 11).
The protocol reported by Chae and coworkers (Nat. Methods 2010, 7, 1003-1008) was used to evaluate MelB stability with DDM and GDN.
The reported protocol3 was used to evaluate MelB stability with DDM and GDN. Vector pK35ΔAHB/WT MelB/CH6 encoding the wild-type MelB with a 6-His tag at the C-terminus and E. coli DW2-R cells (ΔmelB and ΔlacZY) are used for the assay. Cells were harvested, resuspended in a buffer containing 20 mM Tris, pH 7.5, 200 mM NaCl and 10% glycerol. The harvested cells were subjected to French press and centrifugation at 20,000 g for 15 min. Subsequently, membranes were obtained via ultracentrifugation at 43,000 rpm for 3 hr in the Beckman rotor, Type 45 Ti rotor. A protein assay was carried out with a BCA kit (Thermo Scientific, Rockford, Ill.). For the measurement of solubilization efficiency, membrane samples containing MelB were incubated with a solubilization buffer (20 mM Tris, 200 mM NaCl, 10% glycerol, 20 mM melibiose, pH, 7.5) and 1.5 wt % DDM or GDN at 0° C. for 10 min. The final protein concentration was 10 mg/mL. For the MelB thermostability, the samples were incubated for 90 min at the four different temperatures (0, 45, 55, and 65° C.). After ultracentrifugation at 355,590 g in a Beckman Optima™ MAX Ultracentrifuge using a TLA-100 rotor for 45 min at 4° C., 10 μg protein before and after spin for each condition was analyzed by SDS-12% PAGE and immunoblotted with Penta-His-HRP antibody (Qiagen, Germantown, Md.).
(In general: In western blotting, separated proteins are transferred to a membrane and probed.)

For experiment [2], the target named is T2, wild type β2AR (β2AR WT) (Homo sapiens, UniProt P07550).
T2 construct: made in house; host or cells: Sf9 insect cells (baculovirus); lysed cells and membranes extracted directly with amphiphile
T2 sequence (P07550 whole entry): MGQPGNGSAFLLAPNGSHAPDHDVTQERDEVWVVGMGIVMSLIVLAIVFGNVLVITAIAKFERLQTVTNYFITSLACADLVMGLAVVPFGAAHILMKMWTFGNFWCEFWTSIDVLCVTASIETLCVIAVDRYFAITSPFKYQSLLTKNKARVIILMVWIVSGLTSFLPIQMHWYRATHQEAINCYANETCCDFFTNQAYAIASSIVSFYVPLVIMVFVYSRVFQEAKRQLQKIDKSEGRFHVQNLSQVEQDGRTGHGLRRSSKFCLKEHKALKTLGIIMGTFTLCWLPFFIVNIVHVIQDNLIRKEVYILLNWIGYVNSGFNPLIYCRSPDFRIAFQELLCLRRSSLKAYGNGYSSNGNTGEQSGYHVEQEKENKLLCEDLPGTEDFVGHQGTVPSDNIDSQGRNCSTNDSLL
The experiment in a line: β2AR WT activity after extraction ([3H]-dihydroalprenolol binding). Format: biochemical. The following applies: for β2AR WT initial activity: extracted with 1 wt % or 2 wt % amphiphile; for β2AR WT activity over 72 hours: solubilized samples stored at 4° C. How it is done: In the examples discussed above, conventional detergents such as DDM were used to extract IMPs from the membrane, and then in most cases the solution of detergent-solubilized protein was diluted with amphiphile-containing solutions to evaluate the new agents. With this approach it is possible that the small amount of residual conventional detergent could affect protein stability. To exclude this possibility, GLC-3 and GDN were used to extract wild type β2AR (β2AR WT) (Kobilka, Trends in Pharmacological Sciences 2011, 32, 213-218) from the membrane. Receptor activity was measured via a binding assay involving the antagonist [^3H]-dihydroalprenolol. […] GDN is therefore highly suitable for GPCR extraction.
A gene encoding amino-terminally FLAG epitope tagged β2AR was expressed in Sf9 cells by baculovirus, with no ligand present during culture. Cells were infected at a density of 4×10^6 cells/mL and then cultured for 48 hours prior to harvesting by centrifugation. Cells were resuspended and lysed by osmotic shock with a low ionic strength buffer (20 mM Tris pH 7.5, 1 mM EDTA). The lysed cells were aliquoted 35 mg per aliquot, then frozen. For extraction tests, 300 μL of solubilization buffer (20 mM HEPES pH 7.5, 100 mM NaCl) containing each amphiphile was added to each aliquot, which was then homogenized by pipet followed by grinding with a glass dounce tissue homogenizer. After two-hour incubation at 4° C., samples were centrifuged at maximum speed in a tabletop microcentrifuge to pellet insoluble material. Supernatant was removed and assayed for protein concentration by DC protein assay (Bio-Rad).
The amount of functional receptor was quantified by incubation for 1 hour with 10 nM 3H dihydroalprenolol. Samples were then separated by gel filtration over G-50 resin and radioactivity was quantified by liquid scintillation. Nonspecific binding was measured in the presence of 10 μM alprenolol. Assays were performed in triplicate at time points indicated. G-50 filtration was performed in buffer containing 20 mM HEPES pH 7.5, 100 mM NaCl, 10-fold CMC of the detergent tested. All binding assays were performed with ice cold buffers.

Structures are written as SMILES.

T1 sequence (P30878 whole entry): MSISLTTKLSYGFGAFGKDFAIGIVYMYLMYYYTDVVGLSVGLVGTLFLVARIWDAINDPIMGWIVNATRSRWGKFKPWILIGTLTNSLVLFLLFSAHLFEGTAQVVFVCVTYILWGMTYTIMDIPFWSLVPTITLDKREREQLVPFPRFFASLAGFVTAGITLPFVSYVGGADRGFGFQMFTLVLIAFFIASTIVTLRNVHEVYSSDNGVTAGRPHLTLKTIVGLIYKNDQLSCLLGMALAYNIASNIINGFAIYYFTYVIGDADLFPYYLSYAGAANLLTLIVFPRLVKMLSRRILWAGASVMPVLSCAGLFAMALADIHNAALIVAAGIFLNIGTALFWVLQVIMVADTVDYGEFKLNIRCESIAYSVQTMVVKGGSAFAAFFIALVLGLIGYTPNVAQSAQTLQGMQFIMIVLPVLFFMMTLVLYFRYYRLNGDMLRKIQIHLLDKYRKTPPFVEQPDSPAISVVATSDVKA

`CCCCCCCCCCCCO[C@@H]1O[C@H](CO)[C@@H](O[C@H]2O[C@H](CO)[C@@H](O)[C@H](O)[C@H]2O)[C@H](O)[C@H]1O` [DDM, dodecyl-β-D-maltoside, reference compound]: in experiment [1], the “MelB extraction from membranes at 0° C.” value was “quantitatively extract”. Also, the “Soluble MelB at 45° C.” value in experiment [1] (90 min, 45° C.) is “high yield of soluble MelB”. In experiment [1] (90 min), the “Soluble MelB at 55° C.” value is “no soluble protein was obtained”. In addition, the “β2AR WT initial activity” value in experiment [2] ([3H]-dihydroalprenolol binding) is reported as “low initial activity”. For the same compound, in experiment [2], the “β2AR WT activity over 72 hours” value is “rapidly decomposed”.

As to `C[C@@H]1CC[C@@]2(OC1)O[C@H]1C[C@H]3[C@@H]4CC=C5C[C@@H](OCCC(CO[C@@H]6OC(CO)[C@@H](O[C@H]7OC(CO)[C@@H](O)C(O)C7O)C(O)C6O)CO[C@@H]6OC(CO)[C@@H](O[C@H]7OC(CO)[C@@H](O)C(O)C7O)C(O)C6O)CC[C@]5(C)[C@H]4CC[C@]3(C)[C@@H]1[C@@H]2C` (some centres unmarked) [GDN, glyco-diosgenin], in experiment [1], the “MelB extraction from membranes at 0° C.” value is “not quite as efficient in extraction”. Further, in experiment [1] (90 min), the “Soluble MelB at 55° C.” value is recorded as “large amounts of soluble protein”. Besides, the “Soluble MelB at 65° C.” value in experiment [1] (90 min, 65° C.) is “large amounts of soluble protein”. For the same compound, in experiment [2] ([3H]-dihydroalprenolol binding), the “β2AR WT initial activity, increase relative to DDM” value is above 3 fold and the “β2AR WT initial activity” value is on record as “high initial activity”. In experiment [2], the “β2AR WT activity over 72 hours” value is given as “did not vary over 72 hours”.

The values are drawn from US9556217B2, “Amphiphilic compounds” (WISCONSIN ALUMNI RESEARCH FOUNDATION, priority 2012, dated 2017).
